Reference: patent publication US11040035B2, “3-oxo-2,6-diphenyl-2,3-dihydropyridazine-4-carboxamides” (BAYER PHARMA AKTIENGESELLSCHAFT, priority 2016, dated 2021)

What was measured:
AHR [1] = biological target: T1, AHR (Homo sapiens, UniProt P35869); experiment: In vitro assay 2: agonism in human cell line (transactivation assay); conditions: Assay 2: AHR-luc Hum Agonism IC50 [M], no kynurenic acid, 20 hours, firefly luciferase
T1 sequence (P35869 11-848): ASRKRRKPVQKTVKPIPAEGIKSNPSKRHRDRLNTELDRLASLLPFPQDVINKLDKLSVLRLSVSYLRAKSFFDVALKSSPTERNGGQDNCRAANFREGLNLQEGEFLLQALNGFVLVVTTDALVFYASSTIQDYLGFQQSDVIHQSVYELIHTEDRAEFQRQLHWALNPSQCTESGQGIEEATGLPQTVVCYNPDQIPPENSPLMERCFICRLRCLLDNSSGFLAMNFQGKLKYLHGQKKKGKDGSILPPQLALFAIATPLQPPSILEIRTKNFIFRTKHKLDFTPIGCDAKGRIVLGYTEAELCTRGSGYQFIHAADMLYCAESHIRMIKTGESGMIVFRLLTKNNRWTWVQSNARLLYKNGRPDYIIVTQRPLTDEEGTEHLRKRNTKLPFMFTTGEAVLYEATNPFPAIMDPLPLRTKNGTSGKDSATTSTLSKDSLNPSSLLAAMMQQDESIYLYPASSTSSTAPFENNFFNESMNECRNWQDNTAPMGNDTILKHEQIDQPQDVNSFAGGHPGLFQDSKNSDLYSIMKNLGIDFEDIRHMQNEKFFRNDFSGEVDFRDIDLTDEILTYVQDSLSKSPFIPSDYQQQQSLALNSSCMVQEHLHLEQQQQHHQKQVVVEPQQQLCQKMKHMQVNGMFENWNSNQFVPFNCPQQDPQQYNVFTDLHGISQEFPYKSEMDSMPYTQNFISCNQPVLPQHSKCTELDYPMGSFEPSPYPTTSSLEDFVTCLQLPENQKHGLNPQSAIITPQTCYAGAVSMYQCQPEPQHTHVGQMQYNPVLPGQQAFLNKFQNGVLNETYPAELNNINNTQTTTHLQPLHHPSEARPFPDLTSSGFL

[2] = system: AHR-regulated gene CYP1A1; experiment: In vitro assay 3: AHR-regulated CYP1A1 expression in human cell line (U937, qPCR); conditions: Homo sapiens, U-937, 6 h, read-out: Assay 3: Hum CYP1A1 Antagonism IC50 [M], U937 cells, 200 μM KA, 6 hours, qPCR
AHR [3] = biological target: T1, AHR; experiment: In vitro assay 1: antagonism in human cell line (transactivation assay, kynurenic acid prestimulated); conditions: Assay 1: AHR-luc Hum Antagonism IC50 [M], 150 μM kynurenic acid, 20 hours, firefly luciferase

Row | SMILES | IC50 (AHR [1]) | IC50 [2] | IC50 (AHR [3])
1 | CC(O)C(NC(=O)c1cc(-c2ccc(Cl)cc2)nn(-c2cccc(F)c2)c1=O)C(F)(F)F (mixture of isomers) [Example 197, 6-(4-Chlorophenyl)-2-(3-fluorophenyl)-3-oxo-N-[(2RS, 3RS)-1,1,1-trifluoro-3-hydroxybutan-2-yl]-2,3-dihydropyridazine-4-carboxamide and 6-(4-Chlorophenyl)-2-(3-fluorophenyl)-3-oxo-N-[(2RS, 3SR)-1,1,1-trifluoro-3-hydroxybutan-2-yl]-2,3-dihydropyridazine-4-carboxamide] | > 2e-05 M | 1.82e-08 M | 1.97e-08 M
2 | O=C(NC(CO)C1CCC1)c1cc(-c2ccc(Cl)cc2)nn(-c2cccc(F)c2)c1=O (racemic) [Example 209, 6-(4-Chlorophenyl)-N-[(1RS)-1-cyclobutyl-2-hydroxyethyl]-2-(3-fluorophenyl)-3-oxo-2,3-dihydropyridazine-4-carboxamide] | > 2e-05 M | 3.21e-08 M | 3.27e-08 M
3 | CC(CO)CNC(=O)c1cc(-c2ccc(C(F)(F)F)cc2)nn(-c2cccc(F)c2)c1=O (racemic) [Example 245, 2-(3-Fluorophenyl)-N-[(2RS)-3-hydroxy-2-methylpropyl]-3-oxo-6-[4-(trifluoromethyl)phenyl]-2,3-dihydropyridazine-4-carboxamide] | > 2e-05 M | 5.44e-08 M | 3.72e-08 M
4 | CC(O)CCNC(=O)c1cc(-c2ccc(C(F)(F)F)cc2)nn(-c2cccc(F)c2)c1=O (racemic) [Example 247, 2-(3-Fluorophenyl)-N-[(3RS)-3-hydroxybutyl]-3-oxo-6-[4-(trifluoromethyl)phenyl]-2,3-dihydropyridazine-4-carboxamide] | > 2e-05 M | 1.71e-07 M | 8.35e-08 M
5 | CC(CCO)NC(=O)c1cc(-c2ccc(C(F)(F)F)cc2)nn(-c2cccc(F)c2)c1=O (racemic) [Example 253, 2-(3-Fluorophenyl)-N-[(2RS)-4-hydroxybutan-2-yl]-3-oxo-6-[4-(trifluoromethyl)phenyl]-2,3-dihydropyridazine-4-carboxamide] | > 2e-05 M | 3.62e-08 M | 2.89e-08 M
6 | O=C(NC(CO)CCO)c1cc(-c2ccc(C(F)(F)F)cc2)nn(-c2cccc(F)c2)c1=O (racemic) [Example 262, N-[(2RS)-1,4-Dihydroxybutan-2-yl]-2-(3-fluorophenyl)-3-oxo-6-[4-(trifluoromethyl)phenyl]-2,3-dihydropyridazine-4-carboxamide] | > 2e-05 M | 9.15e-08 M | 5.51e-08 M
7 | O=C(NC(CO)C1CCCO1)c1cc(-c2ccc(C(F)(F)F)cc2)nn(-c2cccc(F)c2)c1=O (racemic) [Example 263, 3,6-Anhydro-2,4,5-trideoxy-2-[({2-(3-fluorophenyl)-3-oxo-6-[4-(trifluoromethyl)phenyl]-2,3-dihydropyridazin-4-yl}carbonyl)amino]-DL-erythro-hexitol and 1,4-anhydro-2,3,5-trideoxy-5-[({2-(3-fluorophenyl)-3-oxo-6-[4-(trifluoromethyl)phenyl]-2,3-dihydropyridazin-4-yl}carbonyl)amino]-DL-threo-hexitol] | > 2e-05 M | 6.06e-08 M | 3.54e-08 M
8 | O=C(NC(CO)C1CC1)c1cc(-c2ccc(C(F)(F)F)cc2)nn(-c2cccc(F)c2)c1=O (racemic) [Example 267, N-[(1RS)-1-Cyclopropyl-2-hydroxyethyl]-2-(3-fluorophenyl)-3-oxo-6-[4-(trifluoromethyl)phenyl]-2,3-dihydropyridazine-4-carboxamide] | > 2e-05 M | 1.05e-08 M | 2.9e-08 M
9 | O=C(NC(CO)CF)c1cc(-c2ccc(Cl)cc2)nn(-c2cccc(F)c2)c1=O (racemic) [Example 323, 6-(4-chlorophenyl)-N-[(2RS)-1-fluoro-3-hydroxypropan-2-yl]-2-(3-fluorophenyl)-3-oxo-2,3-dihydropyridazine-4-carboxamide] | > 2e-05 M | 3.2e-08 M | 2.43e-08 M
10 | O=C(N[C@H]1CC[C@@H]1O)c1cc(-c2ccc(Cl)cc2)nn(-c2cccc(F)c2)c1=O (racemic) [Example 348, 6-(4-chlorophenyl)-2-(3-fluorophenyl)-N-(trans-2-hydroxycyclobutyl)-3-oxo-2,3-dihydropyridazine-4-carboxamide] | > 2e-05 M | 1.37e-07 M | 5.11e-08 M
11 | N#CC(CO)NC(=O)c1cc(-c2ccc(Cl)cc2)nn(-c2cccc(F)c2)c1=O (racemic) [Example 371, 6-(4-chlorophenyl)-N-[(1RS)-1-cyano-2-hydroxyethyl]-2-(3-fluorophenyl)-3-oxo-2,3-dihydropyridazine-4-carboxamide] | > 2e-05 M | 5.69e-08 M | 1.63e-08 M
12 | O=C(N[C@@H]1CCCC[C@@H]1O)c1cc(-c2ccc(Cl)cc2)nn(-c2cccc(F)c2)c1=O (relative stereo) [Example 103, 6-(4-Chlorophenyl)-2-(3-fluorophenyl)-N-(cis-2-hydroxycyclohexyl)-3-oxo-2,3-dihydropyridazine-4-carboxamide] | > 2e-05 M | 4.47e-09 M | 1.59e-08 M
13 | O=C(N[C@@H]1CCC[C@@H]1O)c1cc(-c2ccc(Cl)cc2)nn(-c2cccc(F)c2)c1=O (relative stereo) [Example 109, 6-(4-Chlorophenyl)-2-(3-fluorophenyl)-N-(cis-2-hydroxycyclopentyl)-3-oxo-2,3-dihydropyridazine-4-carboxamide] | > 2e-05 M | 3.61e-08 M | 
14 | COc1ccc(-c2cc(C(=O)N[C@@H](C)[C@H](C)O)c(=O)n(-c3cccc(F)c3)n2)cc1 (relative stereo) [Example 116, rel-2-(3-Fluorophenyl)-N-[(2S,3S)-3-hydroxybutan-2-yl]-6-(4-methoxyphenyl)-3-oxo-2,3-dihydropyridazine-4-carboxamide] | > 2e-05 M | 9.69e-08 M | 2.9e-08 M
15 | O=C(N[C@H]1CCC[C@@H]1O)c1cc(-c2ccc(Cl)cc2)nn(-c2cccc(F)c2)c1=O (relative stereo) [Example 123, 6-(4-Chlorophenyl)-2-(3-fluorophenyl)-N-(trans-2-hydroxycyclopentyl)-3-oxo-2,3-dihydropyridazine-4-carboxamide] | > 2e-05 M | 9.77e-08 M | 3.63e-08 M
16 | O=C(N[C@@H]1CC[C@@H]1O)c1cc(-c2ccc(Cl)cc2)nn(-c2cccc(F)c2)c1=O (relative stereo) [Example 357] | > 2e-05 M | 2.7e-08 M | 2.13e-08 M
17 | Cc1ccc(-c2cc(C(=O)NC(C)CO)c(=O)n(-c3cccc(F)c3)n2)cc1 (centres unmarked) [Example 7, 2-(3-Fluorophenyl)-N-(1-hydroxypropan-2-yl)-6-(4-methylphenyl)-3-oxo-2,3-dihydropyridazine-4-carboxamide] |  | 1.23e-07 M | 6.4e-08 M
18 | CC[C@@H](CO)NC(=O)c1cc(-c2ccc(Cl)cc2)nn(-c2cccc(F)c2)c1=O [Example 21, 6-(4-Chlorophenyl)-2-(3-fluorophenyl)-N-[(2S)-1-hydroxybutan-2-yl]-3-oxo-2,3-dihydropyridazine-4-carboxamide] |  | 3.54e-08 M | 1.89e-08 M
19 | Cc1ccc(-c2cc(C(=O)NC(CO)C(C)C)c(=O)n(-c3ccccc3)n2)cc1 (centres unmarked) [Example 70, N-(1-hydroxy-3-methylbutan-2-yl)-6-(4-methylphenyl)-3-oxo-2-phenyl-2,3-dihydropyridazine-4-carboxamide] |  | 1.26e-07 M | 9.22e-08 M
20 | Cc1ccc(-c2cc(C(=O)N[C@H](CO)C(C)C)c(=O)n(-c3cccc(F)c3)n2)cc1C [Example 83, 6-(3,4-dimethylphenyl)-2-(3-fluorophenyl)-N-[(2S)-1-hydroxy-3-methylbutan-2-yl]-3oxo-2,3-dihydropyridazine-4-carboxamide] |  | 2.39e-08 M | 3.6e-08 M
21 | CC[C@@H](CO)NC(=O)c1cc(-c2ccc(C)c(C)c2)nn(-c2cccc(F)c2)c1=O [Example 86, 6-(3,4-dimethylphenyl)-2-(3-fluorophenyl)-N-[(2S)-1-hydroxybutan-2-yl]-3-oxo-2,3-dihydropyridazine-4-carboxamide] |  | 4.83e-08 M | 4.55e-08 M
22 | Cc1ccc(-c2cc(C(=O)N[C@@H](C)CO)c(=O)n(-c3cccc(F)c3)n2)cc1C [Example 89, 6-(3,4-dimethylphenyl)-2-(3-fluorophenyl)-N-[(2S)-1-hydroxypropan-2-yl]-3-oxo-2,3-dihydropyridazine-4-carboxamide] |  | 1.88e-07 M | 1.15e-07 M
